In ChEMBL document CHEMBL3621049, “Imidazole derivatives show anticancer potential by inducing apoptosis and cellular senescence” (2014):
The source made the active and inactive calls.

Experiments:
Format in all cases: functional, cell-based
CCRF-CEM = assay: Growth inhibition of human CCRF-CEM cells at 10 uM by sulforhodamine B assay
HL-60(TB) = assay: Growth inhibition of human HL-60(TB) cells at 10 uM by sulforhodamine B assay
K562 = assay: Growth inhibition of human K562 cells at 10 uM by sulforhodamine B assay
MOLT-4 = assay: Growth inhibition of human MOLT4 cells at 10 uM by sulforhodamine B assay
RPMI-8226 = assay: Growth inhibition of human RPMI8226 cells at 10 uM by sulforhodamine B assay
SR = assay: Growth inhibition of human SR cells at 10 uM by sulforhodamine B assay
A549 = assay: Growth inhibition of human A549/ATCC cells at 10 uM by sulforhodamine B assay
HOP-62 = assay: Growth inhibition of human HOP62 cells at 10 uM by sulforhodamine B assay
NCI-H226 = assay: Growth inhibition of human NCI-H226 cells at 10 uM by sulforhodamine B assay
NCI-H23 = assay: Growth inhibition of human NCI-H23 cells at 10 uM by sulforhodamine B assay
NCI-H322M = assay: Growth inhibition of human NCI-H322M cells at 10 uM by sulforhodamine B assay
NCI-H460 = assay: Growth inhibition of human NCI-H460 cells at 10 uM by sulforhodamine B assay
NCI-H522 = assay: Growth inhibition of human NCI-H522 cells at 10 uM by sulforhodamine B assay
COLO 205 = assay: Growth inhibition of human COLO205 cells at 10 uM by sulforhodamine B assay
HCT-116 = assay: Growth inhibition of human HCT116 cells at 10 uM by sulforhodamine B assay
HCT-15 = assay: Growth inhibition of human HCT15 cells at 10 uM by sulforhodamine B assay
HT-29 = assay: Growth inhibition of human HT-29 cells at 10 uM by sulforhodamine B assay
KM12 = assay: Growth inhibition of human KM12 cells at 10 uM by sulforhodamine B assay
SW-620 = assay: Growth inhibition of human SW620 cells at 10 uM by sulforhodamine B assay
SF-268 = assay: Growth inhibition of human SF268 cells at 10 uM by sulforhodamine B assay
SF-295 = assay: Growth inhibition of human SF295 cells at 10 uM by sulforhodamine B assay
SF-539 = assay: Growth inhibition of human SF539 cells at 10 uM by sulforhodamine B assay
SNB-19 = assay: Growth inhibition of human SNB19 cells at 10 uM by sulforhodamine B assay
SNB-75 = assay: Growth inhibition of human SNB75 cells at 10 uM by sulforhodamine B assay
U-251 = assay: Growth inhibition of human U251 cells at 10 uM by sulforhodamine B assay
LOX IMVI = assay: Growth inhibition of human LOXIMVI cells at 10 uM by sulforhodamine B assay
M14 = assay: Growth inhibition of human M14 cells at 10 uM by sulforhodamine B assay
MDA-MB-435 = assay: Growth inhibition of human MDA-MB-435 cells at 10 uM by sulforhodamine B assay
SK-MEL-2 = assay: Growth inhibition of human SK-MEL-2 cells at 10 uM by sulforhodamine B assay
SK-MEL-28 = assay: Growth inhibition of human SK-MEL-28 cells at 10 uM by sulforhodamine B assay
SK-MEL-5 = assay: Growth inhibition of human SK-MEL-5 cells at 10 uM by sulforhodamine B assay
UACC-257 = assay: Growth inhibition of human UACC257 cells at 10 uM by sulforhodamine B assay
IGROV-1 = assay: Growth inhibition of human IGROV1 cells at 10 uM by sulforhodamine B assay
OVCAR-3 = assay: Growth inhibition of human OVCAR3 cells at 10 uM by sulforhodamine B assay
OVCAR-4 = assay: Growth inhibition of human OVCAR4 cells at 10 uM by sulforhodamine B assay
OVCAR-5 = assay: Growth inhibition of human OVCAR5 cells at 10 uM by sulforhodamine B assay
OVCAR-8 = assay: Growth inhibition of human OVCAR8 cells at 10 uM by sulforhodamine B assay
NCI/ADR-RES = assay: Growth inhibition of human NCI/ADR-RES cells at 10 uM by sulforhodamine B assay
SK-OV-3 = assay: Growth inhibition of human SKOV3 cells at 10 uM by sulforhodamine B assay
786-0 = assay: Growth inhibition of human 786-0 cells at 10 uM by sulforhodamine B assay
A498 = assay: Growth inhibition of human A498 cells at 10 uM by sulforhodamine B assay
ACHN = assay: Growth inhibition of human ACHN cells at 10 uM by sulforhodamine B assay
CAKI-1 = assay: Growth inhibition of human Caki1 cells at 10 uM by sulforhodamine B assay
SN12C = assay: Growth inhibition of human SN12C cells at 10 uM by sulforhodamine B assay
UO-31 = assay: Growth inhibition of human UO31 cells at 10 uM by sulforhodamine B assay
PC-3 = assay: Growth inhibition of human PC3 cells at 10 uM by sulforhodamine B assay
DU-145 = assay: Growth inhibition of human DU145 cells at 10 uM by sulforhodamine B assay
MCF7 = assay: Growth inhibition of human MCF7 cells at 10 uM by sulforhodamine B assay
MDA-MB-231 = assay: Growth inhibition of human MDA-MB-231 cells at 10 uM by sulforhodamine B assay
Hs-578T = assay: Growth inhibition of human Hs 578T cells at 10 uM by sulforhodamine B assay
BT-549 = assay: Growth inhibition of human BT549 cells at 10 uM by sulforhodamine B assay
T47D = assay: Growth inhibition of human T47D cells at 10 uM by sulforhodamine B assay
MDA-MB-468 = assay: Growth inhibition of human MDA-MB-468 cells at 10 uM by sulforhodamine B assay
TK-10 = assay: Growth inhibition of human TK10 cells at 10 uM by sulforhodamine B assay
UACC-62 = assay: Growth inhibition of human UACC62 cells at 10 uM by sulforhodamine B assay
HOP-92 = assay: Growth inhibition of human HOP92 cells at 10 uM by sulforhodamine B assay
Malme-3M = assay: Growth inhibition of human MALME-3M cells at 10 uM by sulforhodamine B assay
HCC 2998 = assay: Growth inhibition of human HCC2998 cells at 10 uM by sulforhodamine B assay
RXF 393 = assay: Growth inhibition of human RXF393 cells at 10 uM by sulforhodamine B assay

Measured: growth inhibition (GI)

COc1cc(-c2nc(-c3ccccc3)c(-c3ccccc3)n2C2CCCCC2)ccc1OC1CCCC1
active: CCRF-CEM | HL-60(TB) | K562 | MOLT-4 | RPMI-8226 | SR | A549 | HOP-62 | NCI-H226 | NCI-H23 | NCI-H322M | NCI-H460 | NCI-H522 | COLO 205 | HCT-116 | HCT-15 | HT-29 | KM12 | SW-620 | SF-268 | SF-295 | SF-539 | SNB-19 | SNB-75 | U-251 | LOX IMVI | M14 | MDA-MB-435 | SK-MEL-2 | SK-MEL-28 | SK-MEL-5 | UACC-257 | IGROV-1 | OVCAR-3 | OVCAR-4 | OVCAR-5 | OVCAR-8 | NCI/ADR-RES | SK-OV-3 | 786-0 | A498 | ACHN | CAKI-1 | SN12C | UO-31 | PC-3 | DU-145 | MCF7 | MDA-MB-231 | Hs-578T | BT-549 | T47D | MDA-MB-468 | TK-10 | UACC-62 | HOP-92 | Malme-3M | HCC 2998 | RXF 393

CCCCCCn1c(-c2ccc(OC)c(OC3CCCC3)c2)nc(-c2ccccc2)c1-c1ccccc1
active: CCRF-CEM | HL-60(TB) | K562 | MOLT-4 | RPMI-8226 | SR | A549 | HOP-62 | NCI-H226 | NCI-H23 | NCI-H322M | NCI-H460 | NCI-H522 | COLO 205 | HCT-116 | HCT-15 | HT-29 | KM12 | SW-620 | SF-268 | SF-295 | SF-539 | SNB-19 | SNB-75 | U-251 | LOX IMVI | M14 | MDA-MB-435 | SK-MEL-2 | SK-MEL-28 | SK-MEL-5 | UACC-257 | IGROV-1 | OVCAR-3 | OVCAR-4 | OVCAR-5 | OVCAR-8 | NCI/ADR-RES | SK-OV-3 | 786-0 | A498 | ACHN | CAKI-1 | SN12C | UO-31 | PC-3 | DU-145 | MCF7 | MDA-MB-231 | Hs-578T | BT-549 | T47D | MDA-MB-468 | TK-10 | UACC-62 | HOP-92 | Malme-3M | HCC 2998 | RXF 393
